Patent US8389523B2, “Substituted quinoxaline and an agrochemical composition thereof” (Kumiai Chemical Industry Co., Ltd., priority 2007, dated 2013)

Key:
Type in all cases: in vivo
Parameters in all cases: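 grade 0 to 5 of growth suppression where 5 is 90% or more and 0 below 10%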
[1] = tested on: Echinochloa oryzicola Vasing; test: Herbicidal effects in paddy field soil treatment (Test Example 1); details: paddy field soil treatment; 1000 g of the active ingredient per hectare; wettable powder added dropwise on water surface; 21st day after treatment
Summary of the method: (§1)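 Seeds sown in puddled paddy soil, waterlogged to 3 cm depth; next day a diluted wettable powder applied dropwise to the water surface at 1000 g active ingredient per hectare. Herbicidal effect scored 21 days after treatment in a greenhouse.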

[2] = tested on: Monochoria vaginalis (Burm. f.) Presl var. plantaginea (Roxb.) Solms-Laub.; test: as above; details: paddy field soil treatment; 1000 g of the active ingredient per hectare; wettable powder added dropwise on water surface; 21st day after treatment
Summary of the method: as §1

[3] = tested on: Scirpus juncoides Roxb. var. ohwianus. T. Koyama; test: as above; details: paddy field soil treatment; 1000 g of the active ingredient per hectare; wettable powder added dropwise on water surface; 21st day after treatment
Summary of the method: as §1

[4] = tested on: Abutilon theophrasti medicus; test: Herbicidal effects in upland field soil treatment (Test Example 2); details: 1000 g active ingredient per hectare, 21st day after treatment, criteria of Table 138
Summary of the method: (§2)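 Pre-emergence test: seeds sown in upland soil, then soil surface sprayed with diluted wettable powder at 1000 g active ingredient per hectare (1000 liters per hectare). Greenhouse growth; herbicidal effect scored on day 21 against set criteria.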

Amaranthus viridis L. [5] = test: as above; details: 1000 g active ingredient per hectare, 21st day after treatment, criteria of Table 138
Summary of the method: as §2

[6] = tested on: Abutilon theophrasti medicus; test: Herbicidal effects in upland field foliar treatment (Test Example 3); details: criteria of Table 138; for herbicidal effects on Abutilon theophrasti medicus: 1000 g of the active ingredient per hectare, 14th day after the treatment, wettable powder; for herbicidal effect (index) on Abutilon theophrasti medicus: 1000 g active ingredient per hectare, 14th day after treatment
Summary of the method: (§3)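 Plants grown two weeks from seed in upland soil in a greenhouse, then sprayed overall with water-diluted wettable powder at 1000 L/ha delivering 1000 g active ingredient/ha. Herbicidal effect scored by rating criteria 14 days after treatment.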

Amaranthus viridis L. [7] = test: as above; details: criteria of Table 138; for herbicidal effects on Amaranthus viridis L.: 1000 g of the active ingredient per hectare, 14th day after the treatment, wettable powder; for herbicidal effect (index) on Amaranthus viridis L.: 1000 g active ingredient per hectare, 14th day after treatment
Summary of the method: as §3

[8] = tested on: Echinochloa crus-galli (L.) P. Beauv. var. crus-galli; test: as above; details: criteria of Table 138; for herbicidal effects on Echinochloa crus-galli (L.) P. Beauv. var. crus-galli: 1000 g of the active ingredient per hectare, 14th day after the treatment, wettable powder; for herbicidal effect (index) on Echinochloa crus-galli (L.) P. Beauv. var. crus-galli: 1000 g active ingredient per hectare, 14th day after treatment
Summary of the method: as §3

O=C1CCCC(O)=C1C(=O)c1nc2cccnc2n(-c2ccccc2Cl)c1=O [IV-9]
5: Herbicidal effects index, Echinochloa oryzicola Vasing [1] | Herbicidal effects index, Monochoria vaginalis (Burm. f.) Presl var. plantaginea (Roxb.) Solms-Laub. [2] | Herbicidal effects index, Scirpus juncoides Roxb. var. ohwianus. T. Koyama [3] | herbicidal effect (index) on Abutilon theophrasti medicus [4] | herbicidal effect (index) on Amaranthus viridis L. (Amaranthus viridis L. [5]) | herbicidal effects on Abutilon theophrasti medicus [6] | herbicidal effects on Amaranthus viridis L. (Amaranthus viridis L. [7]) | herbicidal effects on Echinochloa crus-galli (L.) P. Beauv. var. crus-galli [8]

Cc1ccc(-n2c(=O)c(C(=O)C3=C(O)CCCC3=O)nc3ccccc32)c(Cl)c1 [II-215]
5: Herbicidal effects index, Echinochloa oryzicola Vasing [1] | Herbicidal effects index, Monochoria vaginalis (Burm. f.) Presl var. plantaginea (Roxb.) Solms-Laub. [2] | Herbicidal effects index, Scirpus juncoides Roxb. var. ohwianus. T. Koyama [3] | herbicidal effect (index) on Abutilon theophrasti medicus [4] | herbicidal effect (index) on Amaranthus viridis L. (Amaranthus viridis L. [5]) | herbicidal effects on Abutilon theophrasti medicus [6] | herbicidal effects on Amaranthus viridis L. (Amaranthus viridis L. [7]) | herbicidal effects on Echinochloa crus-galli (L.) P. Beauv. var. crus-galli [8]

COc1ccc(-n2c(=O)c(C(=O)C3=C(O)CC(C)(C)CC3=O)nc3ccccc32)cc1 [II-64]
4: Herbicidal effects index, Scirpus juncoides Roxb. var. ohwianus. T. Koyama [3] | herbicidal effect (index) on Abutilon theophrasti medicus [4]
5: Herbicidal effects index, Echinochloa oryzicola Vasing [1] | Herbicidal effects index, Monochoria vaginalis (Burm. f.) Presl var. plantaginea (Roxb.) Solms-Laub. [2] | herbicidal effect (index) on Amaranthus viridis L. (Amaranthus viridis L. [5]) | herbicidal effects on Abutilon theophrasti medicus [6] | herbicidal effects on Amaranthus viridis L. (Amaranthus viridis L. [7]) | herbicidal effects on Echinochloa crus-galli (L.) P. Beauv. var. crus-galli [8]

O=C(C1=C(O)C2CCC(C2)C1=O)c1nc2ccccc2n(-c2ccccc2)c1=O (stereo not shown) [II-4]
4: herbicidal effect (index) on Abutilon theophrasti medicus [4] | herbicidal effect (index) on Echinochloa crus-galli (L.) P. Beauv. var. crus-galli [8]
5: Herbicidal effects index, Echinochloa oryzicola Vasing [1] | Herbicidal effects index, Monochoria vaginalis (Burm. f.) Presl var. plantaginea (Roxb.) Solms-Laub. [2] | Herbicidal effects index, Scirpus juncoides Roxb. var. ohwianus. T. Koyama [3] | herbicidal effect (index) on Amaranthus viridis L. (Amaranthus viridis L. [5]) | herbicidal effect (index) on Abutilon theophrasti medicus [6] | herbicidal effect (index) on Amaranthus viridis L. (Amaranthus viridis L. [7])

Cc1csc(-n2c(=O)c(C(=O)C3=C(O)CCCC3=O)nc3ccccc32)n1 [I-160]
5: Herbicidal effects index, Echinochloa oryzicola Vasing [1] | Herbicidal effects index, Monochoria vaginalis (Burm. f.) Presl var. plantaginea (Roxb.) Solms-Laub. [2] | Herbicidal effects index, Scirpus juncoides Roxb. var. ohwianus. T. Koyama [3] | herbicidal effect (index) on Abutilon theophrasti medicus [4] | herbicidal effect (index) on Amaranthus viridis L. (Amaranthus viridis L. [5]) | herbicidal effect (index) on Abutilon theophrasti medicus [6] | herbicidal effect (index) on Amaranthus viridis L. (Amaranthus viridis L. [7]) | herbicidal effect (index) on Echinochloa crus-galli (L.) P. Beauv. var. crus-galli [8]

CCc1cccc(-n2c(=O)c(C(=O)C3=C(O)CCCC3=O)nc3cccnc32)c1 [IV-23]
4: herbicidal effects on Abutilon theophrasti medicus [6]
5: Herbicidal effects index, Echinochloa oryzicola Vasing [1] | Herbicidal effects index, Monochoria vaginalis (Burm. f.) Presl var. plantaginea (Roxb.) Solms-Laub. [2] | Herbicidal effects index, Scirpus juncoides Roxb. var. ohwianus. T. Koyama [3] | herbicidal effect (index) on Abutilon theophrasti medicus [4] | herbicidal effect (index) on Amaranthus viridis L. (Amaranthus viridis L. [5]) | herbicidal effects on Amaranthus viridis L. (Amaranthus viridis L. [7]) | herbicidal effects on Echinochloa crus-galli (L.) P. Beauv. var. crus-galli [8]

COc1cc(-n2c(=O)c(C(=O)C3=C(O)CCCC3=O)nc3ccccc32)ccc1Cl [II-167]
5: Herbicidal effects index, Echinochloa oryzicola Vasing [1] | Herbicidal effects index, Monochoria vaginalis (Burm. f.) Presl var. plantaginea (Roxb.) Solms-Laub. [2] | Herbicidal effects index, Scirpus juncoides Roxb. var. ohwianus. T. Koyama [3] | herbicidal effect (index) on Abutilon theophrasti medicus [4] | herbicidal effect (index) on Amaranthus viridis L. (Amaranthus viridis L. [5]) | herbicidal effects on Abutilon theophrasti medicus [6] | herbicidal effects on Amaranthus viridis L. (Amaranthus viridis L. [7]) | herbicidal effects on Echinochloa crus-galli (L.) P. Beauv. var. crus-galli [8]

C=CCn1c(=O)c(C(=O)C2=C(O)CCCC2=O)nc2cccnc21 [III-30]
5: Herbicidal effects index, Monochoria vaginalis (Burm. f.) Presl var. plantaginea (Roxb.) Solms-Laub. [2] | Herbicidal effects index, Scirpus juncoides Roxb. var. ohwianus. T. Koyama [3] | herbicidal effect (index) on Abutilon theophrasti medicus [4] | herbicidal effect (index) on Amaranthus viridis L. (Amaranthus viridis L. [5]) | herbicidal effects on Abutilon theophrasti medicus [6] | herbicidal effects on Amaranthus viridis L. (Amaranthus viridis L. [7])
4: Herbicidal effects index, Echinochloa oryzicola Vasing [1] | herbicidal effects on Echinochloa crus-galli (L.) P. Beauv. var. crus-galli [8]

O=C1CCCC(O)=C1C(=O)c1nc2ccccc2n(-c2ccc(C(F)(F)F)cc2)c1=O [II-44]
5: Herbicidal effects index, Echinochloa oryzicola Vasing [1] | Herbicidal effects index, Monochoria vaginalis (Burm. f.) Presl var. plantaginea (Roxb.) Solms-Laub. [2] | Herbicidal effects index, Scirpus juncoides Roxb. var. ohwianus. T. Koyama [3] | herbicidal effect (index) on Abutilon theophrasti medicus [4] | herbicidal effect (index) on Amaranthus viridis L. (Amaranthus viridis L. [5]) | herbicidal effects on Abutilon theophrasti medicus [6] | herbicidal effects on Amaranthus viridis L. (Amaranthus viridis L. [7]) | herbicidal effects on Echinochloa crus-galli (L.) P. Beauv. var. crus-galli [8]

N#CCCOCn1c(=O)c(C(=O)C2=C(O)CCCC2=O)nc2ccccc21 [I-68]
5: Herbicidal effects index, Monochoria vaginalis (Burm. f.) Presl var. plantaginea (Roxb.) Solms-Laub. [2] | Herbicidal effects index, Scirpus juncoides Roxb. var. ohwianus. T. Koyama [3] | herbicidal effect (index) on Abutilon theophrasti medicus [4] | herbicidal effect (index) on Amaranthus viridis L. (Amaranthus viridis L. [5]) | herbicidal effect (index) on Abutilon theophrasti medicus [6] | herbicidal effect (index) on Amaranthus viridis L. (Amaranthus viridis L. [7])
4: Herbicidal effects index, Echinochloa oryzicola Vasing [1] | herbicidal effect (index) on Echinochloa crus-galli (L.) P. Beauv. var. crus-galli [8]

Cn1c(=O)c(C(=O)C2=C(O)CCCC2=O)nc2cccc(Cl)c21 [I-229]
5: Herbicidal effects index, Monochoria vaginalis (Burm. f.) Presl var. plantaginea (Roxb.) Solms-Laub. [2] | Herbicidal effects index, Scirpus juncoides Roxb. var. ohwianus. T. Koyama [3] | herbicidal effect (index) on Abutilon theophrasti medicus [4] | herbicidal effect (index) on Amaranthus viridis L. (Amaranthus viridis L. [5]) | herbicidal effect (index) on Abutilon theophrasti medicus [6] | herbicidal effect (index) on Amaranthus viridis L. (Amaranthus viridis L. [7])
4: Herbicidal effects index, Echinochloa oryzicola Vasing [1] | herbicidal effect (index) on Echinochloa crus-galli (L.) P. Beauv. var. crus-galli [8]

COc1c(Cl)cc(-n2c(=O)c(C(=O)C3=C(O)CCCC3=O)nc3ccccc32)cc1Cl [II-221]
4: Herbicidal effects index, Echinochloa oryzicola Vasing [1] | herbicidal effect (index) on Abutilon theophrasti medicus [4]
5: Herbicidal effects index, Monochoria vaginalis (Burm. f.) Presl var. plantaginea (Roxb.) Solms-Laub. [2] | Herbicidal effects index, Scirpus juncoides Roxb. var. ohwianus. T. Koyama [3] | herbicidal effect (index) on Amaranthus viridis L. (Amaranthus viridis L. [5]) | herbicidal effects on Abutilon theophrasti medicus [6] | herbicidal effects on Amaranthus viridis L. (Amaranthus viridis L. [7]) | herbicidal effects on Echinochloa crus-galli (L.) P. Beauv. var. crus-galli [8]

O=C1CCCC(O)=C1C(=O)c1nc2ccccc2n(-c2ccc3c(c2)OCO3)c1=O [I-202, 1-(benzo[d][1,3]dioxol-5-yl)-3-(2-hydroxy-6-oxo-1-cyclohexenecarbonyl)-quinoxalin-2(1H)-one]
4: herbicidal effect (index) on Abutilon theophrasti medicus [4] | herbicidal effect (index) on Echinochloa crus-galli (L.) P. Beauv. var. crus-galli [8]
5: Herbicidal effects index, Echinochloa oryzicola Vasing [1] | Herbicidal effects index, Monochoria vaginalis (Burm. f.) Presl var. plantaginea (Roxb.) Solms-Laub. [2] | Herbicidal effects index, Scirpus juncoides Roxb. var. ohwianus. T. Koyama [3] | herbicidal effect (index) on Amaranthus viridis L. (Amaranthus viridis L. [5]) | herbicidal effect (index) on Abutilon theophrasti medicus [6] | herbicidal effect (index) on Amaranthus viridis L. (Amaranthus viridis L. [7])

COCCn1c(=O)c(C(=O)C2=C(O)CCCC2=O)nc2ccccc21 [Compound I-88]
5: Herbicidal effects index, Echinochloa oryzicola Vasing [1] | Herbicidal effects index, Monochoria vaginalis (Burm. f.) Presl var. plantaginea (Roxb.) Solms-Laub. [2] | Herbicidal effects index, Scirpus juncoides Roxb. var. ohwianus. T. Koyama [3] | herbicidal effect (index) on Abutilon theophrasti medicus [4] | herbicidal effect (index) on Amaranthus viridis L. (Amaranthus viridis L. [5]) | herbicidal effect (index) on Abutilon theophrasti medicus [6] | herbicidal effect (index) on Amaranthus viridis L. (Amaranthus viridis L. [7]) | herbicidal effect (index) on Echinochloa crus-galli (L.) P. Beauv. var. crus-galli [8]
